Measurements: patent US20120094894A1, “ANTIDIABETIC MEDICATIONS COMPRISING A DPP-4 INHIBITOR (LINAGLIPTIN) OPTIONALLY IN COMBINATION WITH OTHER ANTIDIABETICS” (BOEHRINGER INGELHEIM INTERNATIONAL GMBH, priority 2009, published 2012)

What was measured:
ob/ob mice [1] = test: Blinded histological scoring of liver (fat content, markers of inflammation) in ob/ob mice; details: 3 mg/kg/d, 14 d, n=9, p<0.01 vs. control 3±0.18
DIO mice [2] = test: Liver fat content by magnetic resonance spectroscopy (MRS) in diet-induced obesity model; assay type: in vivo
Text: Hepatic steatosis is a hallmark of patients with type 2 diabetes and underlies the pathogenesis of non-alcoholic fatty liver disease (NAFLD). Linagliptin is a selective and non-renal excreted inhibitor of dipeptidyl peptidase-4 (DPP-4). […]. Liver lipid content is detected by magnetic resonance spectroscopy (MRS) in vivo and ex vivo by analysis of liver triglycerides. […]. […] A significant reduction of liver fat content (MRS) is visible as early as 2 weeks on treatment. The correlation between liver lipid content as measured by MRS and hepatic triglyceride levels as measured ex vivo is r2=0.565 (p<0.0001).

ob/ob mice [3] = test: Blood glucose AUC in ob/ob mice after 14 d linagliptin; details: 3 mg/kg/d
DIO mice [4] = test: Blood glucose following OGTT (AUC) in diet-induced obesity model; assay type: in vivo; details: 4 weeks, p<0.01
[5] = metformin on its own, in the diabetic; cited from earlier work

| SMILES | Histological score (hepatic steatosis and inflammation) (ob/ob mice [1]) | Time on treatment at which significant reduction of liver fat content (MRS) is visible (DIO mice [2]; DIO mice) [weeks] | Liver fat content (MRS detection) (DIO mice [2]; DIO mice fed 2 or 3 months, 30 mg/kg/d, and 3 mg/kg/d in 3 month fed mice, 4 weeks) | Blood glucose AUC reduction (ob/ob mice [3]) [%] | Blood glucose levels following an OGTT (AUC) suppressed (DIO mice [4]; 3 mg/kg/d) | Blood glucose levels following an OGTT (AUC) suppressed (DIO mice [4]; 30 mg/kg/d) | Average improvement in the HbA1c value [5] |
| --- | --- | --- | --- | --- | --- | --- | --- |
| CC#CCn1c(N2CCC[C@@H](N)C2)nc2c1c(=O)n(Cc1nc(C)c3ccccc3n1)c(=O)n2C [linagliptin, 1-[(4-methyl-quinazolin-2-yl)methyl]-3-methyl-7-(2-butyn-1-yl)-8-(3-(R)-amino-piperidin-1-yl)-xanthine] | 2.2±0.13 | 2 | reduced significantly | 25 | 16%-20% | 20%-26% |  |
| CN(C)C(=N)N=C(N)N [metformin] |  |  |  |  |  |  | 1.0-1.5% |
